Columns and labels:
S. cerevisiae = conditions: typical low concentration; background statement; cited from earlier work
FY23Δpet191 = tested on: FY23Δpet191
Protocol: (§1) Strain-specific ethanol tolerances were determined in batch cultures in specially adapted 100ml Erienmeyer flasks (called Klett Flasks) in combination with the Klett Summerson colorimeter and a green filter (Klett Summerson, USA). Cultures were grown to early exponential phase overnight and then split into 18ml aliquots to which 2ml of either sterile distilled water or ethanol solution were added to the aliquots giving final concentrations of 0, 2,3,4,6 and 10% (w/v) ethanol. Each concentration was carried out in triplicate and hourly measurements were made of cell density. A 1ml sample was extracted from the flask, diluted and plated onto YPD for a viable cell count. The remainder of the sample was centrifuged (15,000 rpm, 4°C, 5 min) and the supernatant frozen for subsequent analysis of ethanol concentration by GC.
(§2) All four members of the isogenic series (FY23WT, FY23Δpet191, FY23Δcox5a and FY23ρ^0) were grown in batch culture at 30°C and ethanol, at various concentrations, was introduced at the beginning of the exponential phase. Cell growth was followed for eight hours measuring optical densities with a Klett meter.
(§3) Graphs were plotted of loge Klett units against elapsed time and linear regression analysis was performed to calculate culture specific growth rates, µ. The effect of ethanol on the growth rate of the 4 members of the series was analysed by comparing relative growth rates at each ethanol concentration, and calculating these as a percentage of the growth rate in the absence of ethanol.
(§4) Ethanol inhibition kinetics are thought to follow those of non-competitive inhibition and can be modeled using a variant of the Monod equation. From the specific growth rate values calculated, it is possible to determine values of Ki by inserting them into the rearranged equation [µm/µi - 1 = I. 1/Ki]. […] The initial values of µ calculated are µapparent values determined from the growth of a culture containing both living and dead cells.

FY23WT = conditions: strain FY23WT (grande parent); batch culture 30°C; exogenous ethanol 0-10% (w/v); µ corrected for viability
Protocol: as §1, §2, §3, §4

FY23Δcox5a = tested on: FY23Δcox5a
Protocol: as §1, §2, §3, §4

FY23ρ^0 = tested on: FY23ρ^0
Protocol: as §1, §2, §3, §4

C[C@@H]1C[C@@H]([C@H](O)CC2CC(=O)NC(=O)C2)C(=O)[C@@H](C)C1 [cycloheximide]
concentration to which S. cerevisiae is sensitive (S. cerevisiae): ~0.2 µg/mL

CCO [ethanol]
Ki as percentage of the wild-type value (FY23Δpet191; FY23Δpet191, Ki relative to FY23WT): approximately 95%
Ki (true growth rate) (FY23Δpet191; strain FY23Δpet191 (nuclear petite), batch culture 30°C, µ corrected for viability): 2.14 % (w/v)
Ki (true growth rate) (FY23WT): 2.30 % (w/v)
ethanol tolerance relative to the wild-type strain (FY23Δcox5a; FY23Δcox5a, Ki as percentage of FY23WT): 86%
Ki (true growth rate) (FY23Δcox5a; strain FY23Δcox5a (nuclear petite), batch culture 30°C, µ corrected for viability): 1.94 % (w/v)
ethanol tolerance relative to FY23 WT (FY23ρ^0; mitochondrial petite, Ki as percentage of FY23WT): 76%
Ki (true growth rate) (FY23ρ^0; strain FY23ρ^0 (mitochondrial petite), batch culture 30°C, µ corrected for viability): 1.71 % (w/v)
